DBAASP
≈ marks a conversion by molar mass, not a printed value. Where “and” joins values, the source holds several entries; their conditions need not be identical. Equal entries are not always repeated.

Legend:
Test in all cases: ≥ marks a high value that may be exact or a test limit, other limits are often not marked, values filed in µg/mL are converted to µM
[1] = tested on: Pseudomonas aeruginosa
[2] = tested on: Micrococcus luteus A270
[3] = tested on: Micrococcus luteus ATCC 49732
[4] = tested on: Escherichia coli SBS 363
[5] = tested on: Escherichia coli ATCC 11775
[6] = tested on: Staphylococcus aureus ATCC 6538
[7] = tested on: Staphylococcus aureus ATCC 12600
[8] = tested on: Escherichia coli ATCC 25922
[9] = tested on: Staphylococcus aureus ATCC 43300
[10] = tested on: Pseudomonas aeruginosa ATCC 14502
[11] = tested on: Escherichia coli UB1005
[12] = tested on: Staphylococcus aureus CCARM 3108
[13] = tested on: Salmonella typhimurium CCARM 8013
[14] = tested on: Candida albicans KCTC 7270
[15] = tested on: Aeromonas salmonicida 97-4
[16] = tested on: Pseudomonas aeruginosa KCTC 1637
[17] = tested on: Escherichia coli KCTC 1682
[18] = tested on: Pseudomonas aeruginosa K799
[19] = tested on: Staphylococcus epidermidis C621
[20] = tested on: Staphylococcus aureus CCARM 3126
[21] = tested on: Staphylococcus aureus CCARM 3114
[22] = tested on: Trichosporon beigelii KCTC 7707
[23] = tested on: Candida albicans CCARM 14001
[24] = tested on: Escherichia coli CGSC 4908
[25] = tested on: Staphylococcus aureus C623
[26] = tested on: Staphylococcus aureus CCARM 3090
[27] = tested on: Staphylococcus aureus
[28] = tested on: Salmonella typhimurium CCARM 8009
[29] = tested on: Salmonella enterica subsp. enterica serovar Typhimurium ATCC 14028s
[30] = tested on: Escherichia coli DC2
[31] = tested on: Candida albicans C627
[32] = tested on: Staphylococcus aureus KCTC 1621
[33] = tested on: Salmonella enterica serovar typhimurium MS7953s
[34] = tested on: Salmonella typhimurium CCARM 8007
[35] = tested on: Salmonella typhimurium KCTC 1926
[36] = tested on: Escherichia coli CCARM 1229
[37] = tested on: Staphylococcus aureus CCARM 3089
[38] = tested on: Pseudomonas aeruginosa Z61
[39] = tested on: Escherichia coli CCARM 1238
[40] = tested on: Aeromonas salmonicida 99-1
[41] = tested on: Staphylococcus aureus ATCC 25923
[42] = tested on: Corynebacterium xerosis C875
[43] = tested on: Pseudomonas aeruginosa H188
[44] = tested on: Pseudomonas aeruginosa H187
[45] = tested on: Salmonella typhimurium C587
[46] = tested on: Enterococcus faecalis C625
[47] = tested on: Staphylococcus aureus SAP 0017
[48] = tested on: Bacillus subtilis C971
[49] = tested on: Salmonella typhimurium C610
[50] = tested on: Shigella dysenteriae
[51] = tested on: Candida albicans ATCC 2002
[52] = tested on: Bacillus subtilis
[53] = tested on: Staphylococcus aureus ATCC 2592
[54] = tested on: Helicobacter pylori NCTC 11637

CC[C@H](C)[C@H](NC(=O)[C@H](C)NC(=O)[C@H](C)NC(=O)[C@H](CCC(=O)O)NC(=O)[C@H](CCCCN)NC(=O)CNC(=O)[C@@H](NC(=O)[C@H](CC(N)=O)NC(=O)[C@H](CCCCN)NC(=O)[C@@H](NC(=O)[C@@H](NC(=O)[C@H](CO)NC(=O)[C@H](Cc1c[nH]c2ccccc12)NC(=O)[C@H](CC(C)C)NC(=O)CN)[C@@H](C)O)[C@@H](C)CC)C(C)C)C(=O)N[C@@H](C)C(=O)N[C@@H](C)C(=O)NCC(=O)N[C@@H](CCCCN)C(=O)N[C@@H](C)C(=O)N[C@@H](C)C(=O)N[C@@H](CC(C)C)C(=O)NCC(=O)N[C@@H](C)C(=O)N[C@@H](CC(C)C)C(N)=O [GLWSTIKNVGKEAAIAAGKAALGAL]
MIC [1]: 6.6 µM (≈ 15.9 µg/mL)
MIC [2]: 6 µM (≈ 14.5 µg/mL)
MIC [3]: 0.8 µM (≈ 1.93 µg/mL)
MIC [4]: 6 µM (≈ 14.5 µg/mL)
MIC [5]: 0.8 µM (≈ 1.93 µg/mL)
MIC [6]: 6 µM (≈ 14.5 µg/mL)
MIC [7]: 0.4 µM (≈ 0.964 µg/mL)
MIC [8]: 6.6 µM (≈ 15.9 µg/mL)
MIC [9]: 26.5 µM (≈ 63.9 µg/mL)
MIC [10]: 6 µM (≈ 14.5 µg/mL)

CC[C@H](C)[C@H](NC(=O)[C@H](C)NC(=O)[C@H](C)NC(=O)[C@H](CCC(N)=O)NC(=O)CNC(=O)[C@H](CC(C)C)NC(=O)[C@H](Cc1cnc[nH]1)NC(=O)[C@H](CCCCN)NC(=O)[C@H](C)NC(=O)CNC(=O)[C@H](CCCCN)NC(=O)[C@H](CCCNC(=N)N)NC(=O)[C@H](CC(C)C)NC(=O)[C@H](Cc1c[nH]c2ccccc12)NC(=O)[C@H](CCCCN)NC(=O)[C@H](CCCCN)NC(=O)[C@H](Cc1c[nH]c2ccccc12)NC(=O)CN)C(=O)N[C@@H](CCCCN)C(C)=O [GWKKWLRKGAKHLGQAAIK]
MIC [11]: 0.919 µM (≈ 2 µg/mL)
MIC [12]: 2 µM (≈ 4.35 µg/mL)
MIC [13]: 4 µM (≈ 8.7 µg/mL)
MIC [14]: 8 µM and 16 µM
MIC [15]: 0.459 µM (≈ 0.999 µg/mL)
MIC [16]: 4 µM and 8 µM
MIC [1]: 4 µM (≈ 8.7 µg/mL)
MIC [17]: 2 µM and 4 µM
MIC [18]: 1.84 µM (≈ 4 µg/mL)
MIC [19]: 7.35 µM (≈ 16 µg/mL)
MIC [20]: 4 µM (≈ 8.7 µg/mL)
MIC [21]: 4 µM (≈ 8.7 µg/mL)
MIC [22]: 4 µM and 8 µM
MIC [23]: 8 µM (≈ 17.4 µg/mL)
MIC [24]: 0.459 µM (≈ 0.999 µg/mL)
MIC [25]: 14.7 µM (≈ 32 µg/mL)
MIC [26]: 8 µM (≈ 17.4 µg/mL)
MIC [27]: 2.83 µM (≈ 6.15 µg/mL)
MIC [28]: 16 µM (≈ 34.8 µg/mL)
MIC [29]: 7.35 µM (≈ 16 µg/mL)
MIC [30]: 0.23 µM (≈ 0.5 µg/mL)
MIC [31]: 3.68 µM (≈ 7.99 µg/mL)
MIC [32]: 4 µM and 8 µM
MIC [33]: 0.23 µM (≈ 0.5 µg/mL)
MIC [34]: 4 µM (≈ 8.7 µg/mL)
MIC [35]: 1 µM and 2 µM
MIC [36]: 8 µM (≈ 17.4 µg/mL)
MIC [37]: 2 µM (≈ 4.35 µg/mL)
MIC [38]: 0.459 µM (≈ 0.999 µg/mL)
MIC [39]: 4 µM (≈ 8.7 µg/mL)
MIC [40]: 0.919 µM (≈ 2 µg/mL)

CC[C@H](C)[C@H](NC(=O)[C@H](C)NC(=O)[C@H](CCCCN)NC(=O)[C@H](CC(C)C)NC(=O)[C@H](C)NC(=O)[C@@H](NC(=O)[C@H](Cc1cnc[nH]1)NC(=O)[C@H](CC(C)C)NC(=O)[C@@H](NC(=O)[C@@H](NC(=O)[C@H](CCCCN)NC(=O)[C@@H](NC(=O)[C@H](C)NC(=O)[C@H](CC(C)C)NC(=O)[C@H](CCCCN)NC(=O)[C@H](Cc1ccccc1)NC(=O)[C@@H](NC(=O)[C@H](CCCCN)NC(=O)[C@H](CC(C)C)NC(=O)[C@H](Cc1ccccc1)NC(=O)[C@H](CO)NC(=O)[C@H](CCCCN)NC(=O)[C@H](Cc1c[nH]c2ccccc12)NC(=O)[C@H](CCCCN)NC(C)=O)[C@@H](C)O)C(C)C)[C@@H](C)O)C(C)C)[C@@H](C)O)C(=O)N[C@@H](CO)C(=O)N[C@@H](CO)C(N)=O [KWKSFLKTFKLAVKTVLHTALKAISS]
MIC [11]: 5.43 µM (≈ 16.2 µg/mL)
MIC [41]: 10.9 µM (≈ 32.4 µg/mL)
MIC [19]: 5.43 µM (≈ 16.2 µg/mL)
MIC [42]: 0.848 µM (≈ 2.53 µg/mL)
MIC [43]: 10.9 µM (≈ 32.4 µg/mL)
MIC [44]: 6.86 µM (≈ 20.5 µg/mL)
MIC [45]: 10.9 µM (≈ 32.4 µg/mL)
MIC [46]: 17.2 µM (≈ 51.5 µg/mL)
MIC [30]: 1.7 µM (≈ 5.07 µg/mL)
MIC [47]: 10.9 µM (≈ 32.4 µg/mL)
MIC [48]: 1.7 µM (≈ 5.07 µg/mL)
MIC [49]: 4.31 µM (≈ 12.9 µg/mL)

CC[C@H](C)[C@H](NC(=O)[C@H](CCC(N)=O)NC(=O)[C@H](CCCCN)NC(=O)[C@H](Cc1c[nH]c2ccccc12)NC(=O)[C@H](CC(C)C)NC(=O)[C@H](CCC(N)=O)NC(=O)[C@@H]1CCCN1C(=O)[C@H](CC(C)C)NC(=O)[C@H](CCCCN)NC(=O)[C@H](C)NC(=O)[C@H](CCC(=O)O)NC(=O)[C@H](CCCCN)NC(=O)[C@@H](NC(=O)[C@H](CCSC)NC(=O)[C@@H](NC(=O)[C@@H](NC(=O)[C@@H](NC(=O)[C@@H](N)CO)[C@@H](C)CC)[C@@H](C)CC)[C@@H](C)O)[C@@H](C)O)C(=O)N[C@@H](C)C(=O)N[C@H]1CSSC[C@@H](C(=O)O)NC(=O)[C@H]([C@@H](C)O)NC(=O)[C@H](CC(N)=O)NC(=O)[C@H](Cc2ccc(O)cc2)NC(=O)[C@H](CC(C)C)NC(=O)[C@H](CCCN=C(N)N)NC1=O [SIITMTKEAKLPQLWKQIACRLYNTC]
MIC [50]: ≥ 39.3 µM
MIC [51]: 9.82 µM (≈ 30 µg/mL)
MIC [52]: ≥ 39.3 µM
MIC [8]: 19.6 µM (≈ 60 µg/mL)
MIC [53]: 4.91 µM (≈ 15 µg/mL)
MIC [54]: 9.82 µM (≈ 30 µg/mL)
